Measurements taken from patent US6627635B2, “Method of preventing abuse of opioid dosage forms” (priority 1997, dated 2003).

How the values were obtained:
[1] = pKa values of the drug substances
[2] = Simulated extractability of naltrexone HCl from hydrocodone bitartrate CR AcroContin tablets, 4 tablets in 25 mL solvent (HPLC recovery); conditions: for solubility in acetone: poor recoveries; for dissolution in the solvents: all of the solvents except acetone
[3] = Simulated extractability of naltrexone HCl from hydrocodone bitartrate CR AcroContin tablets, 5 tablets in 5 mL solvent (HPLC recovery); type: physicochemical; conditions: for % Precipitated: 5 tablets in 5 mL; for extractable from the tablets at the higher pH's: high pH (substantially greater than pH 10, preferably above pH 11)
[4] = in comparison to a 15 mg dose of hydrocodone
Excerpt: In certain preferred embodiments, the opioid agonist is hydrocodone.

[5] = Extractability of naltrexone HCl (1.5 mg) from oxycodone HCl (15 mg), 5 tablets/5 mL solvent; type: physicochemical
[6] = system: effects of morphine-like opioid agonist; conditions: cited from earlier work
[7] = after oral doses; cited from earlier work
[8] = system: mu over delta sites; conditions: cited from earlier work
[9] = hydrochloride salt; cited from earlier work
[10] = cited from earlier work

COc1ccc2c3c1OC1C(=O)CC[C@H]4[C@@H](C2)N(C)CC[C@]314 (some centres unmarked) [Hydrocodone, 4,5-epoxy-3-methoxy-17-methylmorphinan-6-one]
pKa ([1]; at amine functional group): 9.2
solubility in acetone [2]: less soluble
dissolution in the solvents [2]: dissolved completely
% Precipitated ([3]; diluent pH 7.1): 8%
% Precipitated ([3]; diluent pH 8.0): 12%
% Precipitated ([3]; diluent pH 9.0): 27%
% Precipitated ([3]; diluent pH 10.0): 28%
% Precipitated ([3]; diluent pH 11.0): 21%
% Precipitated ([3]; diluent pH 12.0): 83%
% Precipitated ([3]; diluent pH 12.7): 81%
extractable from the tablets at the higher pH's [3]: about 80%
Equianalgesic Doses of Opioids, Calculated Dose [4]: 15.0 mg

COc1ccc2c3c1O[C@H]1[C@@H](O)C=C[C@H]4[C@@H](C2)N(C)CC[C@@]341 [Codeine]
Equianalgesic Doses of Opioids, Calculated Dose [4]: 90.0 mg

CN1CC[C@]23CCCC[C@H]2[C@H]1Cc1ccc(O)cc13 [Levorphanol]
Equianalgesic Doses of Opioids, Calculated Dose [4]: 1.8 mg

COc1ccc2c3c1O[C@H]1C(=O)CC[C@@]4(O)[C@@H](C2)N(C)CC[C@]314 [Oxycodone]
% Precipitated ([5]; diluent Ethanol): 13%
% Precipitated ([5]; diluent IPA): 86%
% Precipitated ([5]; diluent Methanol): 13%
% Precipitated ([5]; diluent pH 6.9): 6%
% Precipitated ([5]; diluent pH 8.1): 87%
% Precipitated ([5]; diluent pH 9.4): 98%
% Precipitated ([5]; diluent pH 10.2): 98%
% Precipitated ([5]; diluent pH 11.0): 98%
% Precipitated ([5]; diluent pH 11.9): 98%
% Precipitated ([5]; diluent pH 12.8): 98%
Equianalgesic Doses of Opioids, Calculated Dose [4]: 13.5 mg

CCC(=O)C(CC(C)N(C)C)(c1ccccc1)c1ccccc1 (centres unmarked) [Methadone]
Equianalgesic Doses of Opioids, Calculated Dose [4]: 9.0 mg

C=CCN1CC[C@]23c4c5ccc(O)c4O[C@H]2C(=O)CC[C@@]3(O)[C@H]1C5 [naloxone]
antagonism of morphine-like opioid agonist effects ([6]; 0.4-0.8 mg intramuscularly or intravenously in man): prevent or promptly reverse the effects of morphine-like opioid agonist
block of the effect of 25 mg of heroin ([6]; one mg intravenously): completely block

Meperidine
Equianalgesic Doses of Opioids, Calculated Dose [4]: 135.0 mg

C[C@H]1[C@H]2Cc3ccc(O)cc3[C@]1(C)CCN2CC1CC1 [cyclazocine]
duration of action [7]: ~24 h

O=C1CC[C@@]2(O)[C@H]3Cc4ccc(O)c5c4[C@@]2(CCN3CC2CC2)[C@H]1O5 [Naltrexone]
blocking action, receptor preference [8]: strong preferential blocking action
pKa ([1]; at amine functional group): 8.4
pKa ([1]; at phenol functional group): 10.3
soluble in water [9]: about 100 mg/cc
solubility in acetone [2]: less soluble
dissolution in the solvents [2]: dissolved completely
extractable from the tablets at the higher pH's [3]: about 10%
extractable from the tablets at the higher pH's ([3]; listed as Naltrexone Hydrochloride): ~10%
duration of action [7]: ~24 h
protein binding ([10]; in vivo): approximately 21%
oral bioavailability ([10]; oral): 5-40%
